# Measurements as given in patent US20260055061A1, “HALOPHTHALIMIDE COMPOUNDS AND METHODS OF USE AGAINST TBI, INFLAMMATORY DISORDER, AUTOIMMUNE DISORDER, NEURODEGENERATIVE DISEASE OR VIRAL INFECTION” (The United States of America, as represented by the …, priority 2022, published 2026).
# Key:
# [1] = molecular target: cereblon (CRBN/DDB1-CUL4A-Rbx1 complex) / BRD3 (Homo sapiens (Human), UniProt Q96SW2); assay: Cereblon/BRD3 binding assay (AlphaScreen / FRET); conditions: cereblon/BRD3 binding FRET assay
# Sequence of cereblon (CRBN/DDB1-CUL4A-Rbx1 complex) / BRD3 (Q96SW2 whole entry): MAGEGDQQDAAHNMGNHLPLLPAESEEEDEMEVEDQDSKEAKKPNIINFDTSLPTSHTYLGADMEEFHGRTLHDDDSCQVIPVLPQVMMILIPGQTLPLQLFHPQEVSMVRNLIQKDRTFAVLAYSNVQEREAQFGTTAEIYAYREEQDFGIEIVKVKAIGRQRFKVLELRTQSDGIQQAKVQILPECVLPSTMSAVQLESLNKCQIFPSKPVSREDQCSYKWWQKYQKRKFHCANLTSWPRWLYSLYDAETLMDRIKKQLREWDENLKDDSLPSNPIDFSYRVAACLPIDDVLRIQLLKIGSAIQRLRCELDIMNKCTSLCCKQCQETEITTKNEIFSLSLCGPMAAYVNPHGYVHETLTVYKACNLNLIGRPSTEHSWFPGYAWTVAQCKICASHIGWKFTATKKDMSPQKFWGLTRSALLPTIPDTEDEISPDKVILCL
# Sequence of cereblon (CRBN/DDB1-CUL4A-Rbx1 complex) / BRD3 (Q16531 whole entry partner): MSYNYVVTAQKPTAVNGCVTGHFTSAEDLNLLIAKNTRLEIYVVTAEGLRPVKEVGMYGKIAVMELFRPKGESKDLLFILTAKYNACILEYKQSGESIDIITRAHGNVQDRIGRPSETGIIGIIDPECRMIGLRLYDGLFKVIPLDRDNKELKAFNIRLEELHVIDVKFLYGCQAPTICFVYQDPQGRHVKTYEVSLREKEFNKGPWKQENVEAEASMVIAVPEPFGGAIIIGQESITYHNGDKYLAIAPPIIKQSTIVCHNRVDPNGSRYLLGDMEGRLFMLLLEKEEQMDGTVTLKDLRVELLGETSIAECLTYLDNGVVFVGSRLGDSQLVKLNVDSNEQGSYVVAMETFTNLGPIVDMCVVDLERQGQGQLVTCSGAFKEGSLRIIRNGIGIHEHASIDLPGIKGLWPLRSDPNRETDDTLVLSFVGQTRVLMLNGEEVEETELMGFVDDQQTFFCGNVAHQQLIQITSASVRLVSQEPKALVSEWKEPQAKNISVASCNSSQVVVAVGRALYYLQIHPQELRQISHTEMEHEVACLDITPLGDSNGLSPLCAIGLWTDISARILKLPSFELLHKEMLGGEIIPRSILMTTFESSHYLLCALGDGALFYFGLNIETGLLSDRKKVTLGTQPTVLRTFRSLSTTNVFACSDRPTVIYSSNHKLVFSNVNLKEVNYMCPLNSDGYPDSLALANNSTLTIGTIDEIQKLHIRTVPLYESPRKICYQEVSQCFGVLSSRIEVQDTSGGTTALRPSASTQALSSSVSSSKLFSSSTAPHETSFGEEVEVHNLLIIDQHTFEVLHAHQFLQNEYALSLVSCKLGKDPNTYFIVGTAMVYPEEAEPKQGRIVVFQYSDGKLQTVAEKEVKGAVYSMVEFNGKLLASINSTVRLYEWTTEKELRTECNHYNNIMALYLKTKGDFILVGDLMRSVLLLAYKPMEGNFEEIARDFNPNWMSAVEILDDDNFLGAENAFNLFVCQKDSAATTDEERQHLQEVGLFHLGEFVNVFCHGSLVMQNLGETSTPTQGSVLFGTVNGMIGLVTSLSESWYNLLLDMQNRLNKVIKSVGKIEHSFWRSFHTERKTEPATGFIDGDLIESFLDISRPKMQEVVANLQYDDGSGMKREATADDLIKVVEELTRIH
# Sequence of cereblon (CRBN/DDB1-CUL4A-Rbx1 complex) / BRD3 (Q13619 whole entry partner): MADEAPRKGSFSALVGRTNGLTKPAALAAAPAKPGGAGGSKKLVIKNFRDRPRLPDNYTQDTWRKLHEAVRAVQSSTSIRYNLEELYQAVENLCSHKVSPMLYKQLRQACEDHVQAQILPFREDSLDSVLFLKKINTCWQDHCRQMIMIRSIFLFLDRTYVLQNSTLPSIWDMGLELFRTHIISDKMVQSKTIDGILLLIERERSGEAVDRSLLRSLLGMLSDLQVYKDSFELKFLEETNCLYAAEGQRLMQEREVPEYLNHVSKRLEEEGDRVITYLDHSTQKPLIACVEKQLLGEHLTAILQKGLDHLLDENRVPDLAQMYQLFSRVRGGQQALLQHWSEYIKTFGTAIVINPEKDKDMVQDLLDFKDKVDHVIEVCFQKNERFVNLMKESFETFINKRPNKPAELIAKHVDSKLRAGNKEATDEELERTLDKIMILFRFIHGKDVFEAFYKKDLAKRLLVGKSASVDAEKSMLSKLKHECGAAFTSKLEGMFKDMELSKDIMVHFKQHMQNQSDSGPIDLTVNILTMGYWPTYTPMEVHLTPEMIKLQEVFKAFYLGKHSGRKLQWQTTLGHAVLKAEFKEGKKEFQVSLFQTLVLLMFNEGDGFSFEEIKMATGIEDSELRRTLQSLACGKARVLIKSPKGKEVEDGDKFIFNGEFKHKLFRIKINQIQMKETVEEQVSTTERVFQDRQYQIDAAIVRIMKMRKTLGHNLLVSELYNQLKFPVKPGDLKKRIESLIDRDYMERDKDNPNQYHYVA
# Sequence of cereblon (CRBN/DDB1-CUL4A-Rbx1 complex) / BRD3 (P62877 whole entry partner): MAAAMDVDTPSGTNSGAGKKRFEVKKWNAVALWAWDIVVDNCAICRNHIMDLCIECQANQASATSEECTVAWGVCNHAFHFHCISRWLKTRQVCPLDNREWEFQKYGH
# Protocol: After 30 min of incubation with shaking at room temperature, AlphaLISA anti-FLAG Acceptor and Alpha Glutathione Donor beads (PerkinElmer) were sequentially added and then incubated for 1 hr at room temperature for each of the added chemicals. Alpha counts were thereafter read on a Synergy Neo2 (BioTek) for the analysis. Relative activity or inhibition was calculated as the highest value, which was set to 100%, and the lowest value was set to 0% after subtraction of the “blank value” from all readings.
# After 30 min of incubation with shaking at room temperature, AlphaLISA anti-FLAG Acceptor and Alpha Glutathione Donor beads (PerkinElmer) were sequentially added and then incubated for 1 h at room temperature for each of the added chemicals. Alpha counts were thereafter read on a Synergy Neo2 (BioTek) for the analysis. The relative activity of the alpha signal was calculated after subtraction of the “blank value” from all readings, and the value of the vehicle group was then set as 100%.
# [2] = molecular target: SALL4 (Homo sapiens (Human), UniProt Q9UJQ4); assay: SALL4 expression in Tera-1 cells (Western blot); type: cell-based
# Protocol: (§1) For Western blot analysis, total proteins were extracted using RIPA buffer (ThermoFisher Scientific, Waltham, MA) containing Halt Protease Inhibitor Cocktail (ThermoFisher Scientific). […] After incubation at 4° C. overnight, the following HRP conjugated secondary antibodies were used: (i) goat anti-rabbit IgG (ThermoFisher Scientific) for ikaros and aiolos, and (ii) goat anti-mouse IgG (ThermoFisher Scientific) for SALL4 and GAPDH. […] Antigen-antibody complexes were detected using enhanced chemiluminescence (Thermo, iBright CL1500).
# (§2) Specifically, MM1.S cells were obtained from ATCC (Manassas, VA, USA), grown in RPMI media supplemented with 10% FBS, penicillin 100 U/mL, and streptomycin […], and maintained at 37° C. and 5% CO2.
# as §1, with “MA, USA)” for “MA)”, “Scientific). Thereafter, the proteins were separated by gel electrophoresis and then transferred to polyvinylidene difluoride (PVDF) membranes (ThermoFisher Scientific), as described previously.” for “Scientific).”, “HRP-conjugated” for “HRP conjugated”, “Ikaros” for “ikaros”, “Aiolos,” for “aiolos,”, “(ThermoFisher Scientific,” for “(Thermo,”
# [3] = molecular target: Aiolos (Homo sapiens (Human), UniProt Q9UKT9); assay: Aiolos degradation in MM1.S cells (Western blot); type: cell-based; conditions: 1 μM, relative to GAPDH
# Protocol: as §1, §2
# (§3) For Western blot analysis, total proteins were extracted using RIPA buffer (ThermoFisher Scientific, Waltham, MA, USA) containing Halt Protease Inhibitor Cocktail (ThermoFisher Scientific). Thereafter, the proteins were separated by gel electrophoresis and then transferred to polyvinylidene difluoride (PVDF) membranes (ThermoFisher Scientific), as described previously. […] Antigen-antibody complexes were detected using enhanced chemiluminescence (ThermoFisher Scientific, iBright CL1500).
# [4] = molecular target: Ikaros (Homo sapiens (Human), UniProt Q13422); assay: Ikaros degradation in MM1.S cells (Western blot); type: cell-based; conditions: 1 μM, relative to GAPDH
# Protocol: as §1, §2, §3
# [5] = tested on: LPS-induced nitrite in RAW 264.7 cells; assay: LPS-induced nitrite production in RAW 264.7 cells (Griess reagent / fluorometric kit); type: cell-based, mouse; conditions: for Nitrite, % Change versus Control (± s.e.m.): 10 uM
# Protocol: Nitrite ion detection in drug treated […] cell culture media: To measure the levels of nitrite ion NO2—) the Griess Reagent System (Promega, Madison, WI, Cat #G2930) was utilized. The protocol followed was that recommended by the manufacturer. In brief a NO2— ion standard curve was prepared in culture media of the same composition to that used for the cell culture study. The concentration range of the standard curve was from 1.5 µM to 100 µM. Equal volumes (50 μL) of standards and unknown samples were added to clear 96 well plates in duplicate. Then 50 μL of sulfanilamide solution was added to each well and the plate was covered and incubated in the dark for 10 min. After the incubation period 50 μL of N-1-napthylethylenediamine dihydrochloride solution was added to each well and the plate was incubated in dark for a further 10 min. After this incubation, the plate was read at 550 nm on a SPECTRAmax PLUS plate reader and the absorbances were used to generate a NO2— standard curve and the NO2— ion levels of the unknown samples are determined using SoftMax Pro V5, Molecular Devices.
# Most neurons are highly vulnerable to RNS and ROS. Nitric oxide (NO) is one of RNSs, which is very short lived and cannot be readily measured. However, nitrite is a stable end product of nitric oxide metabolism. Therefore, nitrite acts as a surrogate measure of NO. The Griess Reagent System (Promega Corporation, Madison, WI) can be applied to measure nitrite levels in culture media following the manufacturer's protocol, and this system was used in the present study as it is a more sensitive assay compared to quantifying actions on TNF-α by ELISA assay. […] This challenge induces high level of TNF-α protein accompanied by a robust generation of nitrite.
# (§4) Cells were propagated as described by ATCC guidelines.
# [6] = Phase I metabolic stability in human liver microsomes (+/- NADPH, LC/MS); type: in vitro ADME; conditions: for % Compound Remaining (mean), NADPH: with NADPH; for % Compound Remaining (mean), -NADPH: without NADPH
# Protocol: The fluorinated compounds were evaluated under the more metabolically demanding conditions of a Phase-1-type microsomal analysis. […] For this initial comparison, the 7-fluoro-dithiopomaldiomide 30 was selected owing to its combination of favorable biological parameters and general ease of synthesis. The reactions on each sample were initiated by addition of human liver microsomes in the presence or absence of an NADPH regenerating system, and compound disappearance was monitored via LC/MS (FIG. 14, Table 10).
# [7] = tested on: TNF-α; assay: LPS-induced TNF-α production in RAW 264.7 cells (ELISA); type: cell-based, mouse; conditions: 10 uM
# Protocol: Enzyme-linked immunosorbent assay for TNF-α protein: Media TNF-α levels were measured by use of the Biolegend ELISA MAX Set Delux ELISA (#430904). The protocol used was that recommended by the manufacturer. In brief, a day prior to performing the assay, a 96 well plate was coated with a capture antibody directed against TNF-α. The following day the assay plate was washed and blocked with the kit blocking agent for 1 h while being mixed on a plate shaker at 200 rpm (all incubations were mixed at 200 rpm unless stated otherwise). A TNF-α protein standard curve was prepared in the assay diluent following the kit instructions and unknown media samples were likewise diluted in the same assay diluent. After blocking, the plate was washed and then both the standards and unknown media samples were added to the plate in duplicate. The standards and unknown samples were incubated for 2 h. After the incubation, the plate was washed and then the biotin labeled detection antibody was added to each well and incubated for a further 1 h. After this incubation, the avidin-HRP conjugate complex was added to each well and incubated for 30 min. The plate was washed and the chromogenic substrate 3,3′,5,5′-tetramethylbenzidine solution was added to each well. At this point the plate was covered and incubated in the dark for 15 min, with no mixing. After 15 min the chromogenic reaction was stopped by the addition of 2 N H2SO4 and the absorbance was read at 450 nm and for background subtractions at 570 nm, on a SPECTRAmax PLUS plate reader. The absorbances were used to generate a TNF-α a protein standard curve and the protein levels in the unknown samples were determined using SoftMax Pro V5, Molecular Devices.
# as §4
# [8] = tested on: RAW 264.7 cells; assay: Cell viability of drug treated RAW 264.7 cells (CellTiter 96 AQueous One, MTS); conditions: 10 uM
# [9] = LPS-activated RAW 264.7 cells (Table 9)
compound,measurement,setting,value
"Nc1cccc2c1C(=O)N(C1CCC(=O)NC1=O)C2=O (racemic) [Pomalidomide, pomalidomide, reference compound]",cereblon binding (in words),[1],potently bind to cereblon
same,SALL4 expression levels,"[2]; Tera-1 cells, 1 μM",induced a decrease in expression levels of SALL4
same,SALL4 levels,"[2]; human Tera-1 cells, 0.01, 0.1, 1 μM, relative to GAPDH",dramatically lowerered
same,Aiolos levels,[3],dramatically lowerered
same,Ikaros levels,[4],dramatically lowerered
"Nc1cccc2c1C(=S)N(C1CCC(=S)NC1=O)C2=O (centres unmarked) [4′, 3,6′-dithiopomalidomide, reference compound]",nitrite levels (in words),"[5]; six-compound pomalidomide grouping, RAW cell assay, FIGS. 12-13",reduced nitrite levels significantly
same,material consumed,"[6]; after 1 hr incubation, human liver microsomes",more than half
same,stability in human liver microsomes (in words),[6]; with and without NADPH,moderate level of instability
"CC(C)Nc1ccc(F)c2c1C(=S)N(C1CCC(=S)NC1=O)C2=O (centres unmarked) [Compound 28, 7-fluoro-4-(isopropylamino)-2-(2-oxo-6-thioxopiperidin-3-yl)-3-thioxoisoindolin-1-one]","Nitrite, % Change versus Control (± s.e.m.)",[5]; LPS-activated RAW 264.7 cells,32.3 ± 1.1%
same,"TNF-a, % Change versus Control (± s.e.m.)",[7]; LPS-activated RAW 264.7 cells,74.7 ± 2.3%
same,"Viability, % Change versus Control (± s.e.m.)",[8]; LPS-activated RAW 264.7 cells,74.1 ± 4.2%
Nc1cccc2c1C(=S)N(C1CCC(=S)NC1=O)C2=O (centres unmarked) [drawing 90],"Nitrite, % Change versus Control (± s.e.m.)",[5]; [9],43 ± 1.0 (N.S.) $ %
same,"TNF-a, % Change versus Control (± s.e.m.)",[7]; [9],113 ± 5.4 (N.S.) %
same,"Viability, % Change versus Control (± s.e.m.)",[8]; [9],92 ± 1.8 (N.S.) %
Nc1ccc(F)c2c1C(=O)N(C1CCC(=O)NC1=O)C2=O (centres unmarked) [drawing 91],"Nitrite, % Change versus Control (± s.e.m.)",[5]; [9],86 ± 3.9 (N.S.) %
same,"TNF-a, % Change versus Control (± s.e.m.)",[7]; [9],98 ± 1.5 (N.S.) %
same,"Viability, % Change versus Control (± s.e.m.)",[8]; [9],102 ± 0.8 (N.S.) %
Nc1ccc(F)c2c1C(=S)N(C1CCC(=S)NC1=O)C2=O (centres unmarked) [drawing 92],"Nitrite, % Change versus Control (± s.e.m.)",[5]; [9],22 ± 1.7 ( **** ) %
same,"TNF-a, % Change versus Control (± s.e.m.)",[7]; [9],109 ± 2.4 (N.S.) %
same,"Viability, % Change versus Control (± s.e.m.)",[8]; [9],95 ± 3.0 (N.S.) %
Nc1c(F)ccc2c1C(=O)N(C1CCC(=O)NC1=O)C2=O (centres unmarked) [drawing 93],"Nitrite, % Change versus Control (± s.e.m.)",[5]; [9],100 ± 5.5 (N.S.) %
same,"TNF-a, % Change versus Control (± s.e.m.)",[7]; [9],93 ± 4.1 (N.S.) %
same,"Viability, % Change versus Control (± s.e.m.)",[8]; [9],90 ± 2.6 (N.S.) %
Nc1c(F)ccc2c1C(=S)N(C1CCC(=S)NC1=O)C2=O (centres unmarked) [drawing 94],"Nitrite, % Change versus Control (± s.e.m.)",[5]; [9],40 ± 1.2 (N.S.) $ %
same,"TNF-a, % Change versus Control (± s.e.m.)",[7]; [9],114 ± 3.9 (N.S.) %
same,"Viability, % Change versus Control (± s.e.m.)",[8]; [9],92 ± 1.6 (N.S.) %
Nc1ccc(F)c2c1C(=S)N(C1CCC(=S)NC1=O)C2=O (centres unmarked) [drawing 96],"% Compound Remaining (mean), NADPH","[6]; human liver microsomes, 0 min",100%
same,"% Compound Remaining (mean), NADPH","[6]; human liver microsomes, 30 min",68%
same,"% Compound Remaining (mean), NADPH","[6]; human liver microsomes, 60 min",48%
same,"% Compound Remaining (mean), -NADPH","[6]; human liver microsomes, 0 min",100%
same,"% Compound Remaining (mean), -NADPH","[6]; human liver microsomes, 30 min",71%
same,"% Compound Remaining (mean), -NADPH","[6]; human liver microsomes, 60 min",53%
